In ChEMBL document CHEMBL3885881, “DrugMatrix”:

Species on record: Rattus norvegicus
Assay: DrugMatrix - Regimen: Daily Repeat
Format: toxicity, organism-based, Sprague-Dawley
Design: regimen Daily Repeat, gender Male, age 6-8 weeks
Conditions: in vivo, po, route oral GAVAGE, vehicle 60 % PEG400; for ABSOLUTE BASOPHIL / ABSOLUTE EOSINOPHIL / ABSOLUTE LYMPHOCYTE / ABSOLUTE MONOCYTE / ABSOLUTE SEGMENTED NEUTROPHIL / BASOPHIL / EOSINOPHIL / ERYTHROCYTE COUNT / HEMATOCRIT / HEMOGLOBIN / LEUKOCYTE COUNT / LYMPHOCYTE / MEAN CORPUSCULAR HEMOGLOBIN / MEAN CORPUSCULAR HEMOGLOBIN CONCENTRATION / MEAN CORPUSCULAR VOLUME / MONOCYTE / NEUTROPHIL / NUCLEATED RED BLOOD CELLS / PLATELET COUNT: tissue Blood; for ALANINE AMINOTRANSFERASE / ALBUMIN / ALKALINE PHOSPHATASE / ASPARTATE AMINOTRANSFERASE / BLOOD UREA NITROGEN / CARBON DIOXIDE / CHLORIDE / CHOLESTEROL / CREATINE PHOSPHOKINASE / CREATININE / GLUCOSE / LACTATE DEHYDROGENASE / LIPASE / PHOSPHORUS / POTASSIUM / SODIUM / TOTAL BILIRUBIN / TOTAL PROTEIN / URIC ACID: tissue Plasma
[1] = 0 mg/kg, 72 h, dose level Control, time 3 day
[2] = 0 mg/kg, 120 h, dose level Control, time 5 day
[3] = 0.001 mg/kg, 72 h, dose level Low, time 3 day

For N[C@@H](Cc1cc(I)c(Oc2ccc(O)c(I)c2)c(I)c1)C(=O)O [LIOTHYRONINE], the “ABSOLUTE BASOPHIL” value [1] was 0 CELLS/uL, the “ABSOLUTE EOSINOPHIL” value [1] was 48.67 CELLS/uL and the “ABSOLUTE LYMPHOCYTE” value [1] was 11723.33 CELLS/uL. For the same molecule, the “ABSOLUTE MONOCYTE” value [1] was 132.67 CELLS/uL, the “ABSOLUTE SEGMENTED NEUTROPHIL” value [1] was 1362 CELLS/uL and the BASOPHIL [1] was 0%. For the same molecule, the EOSINOPHIL [1] was 0.33%, the “ERYTHROCYTE COUNT” value [1] was 5.61 x10E6/uL and the HEMATOCRIT [1] was 33.53%. The HEMOGLOBIN [1] was 13.13 G/DL, the “LEUKOCYTE COUNT” value [1] was 13.27 x10E3/uL and the LYMPHOCYTE [1] was 88.33%. The “MEAN CORPUSCULAR HEMOGLOBIN” value [1] was 23.4 pg, the “MEAN CORPUSCULAR HEMOGLOBIN CONCENTRATION” value [1] was 39.17 G/DL and the “MEAN CORPUSCULAR VOLUME” value [1] was 59.8 fL. For the same molecule, the MONOCYTE [1] was 1%, the NEUTROPHIL [1] was 10.33% and the “NUCLEATED RED BLOOD CELLS” value [1] was 0.67 /100WBC. For the same molecule, the “PLATELET COUNT” value [1] was 967.33 x10E3/uL, the “ALANINE AMINOTRANSFERASE” value [1] was 60.33 u/L and the ALBUMIN [1] was 4.3 G/DL. For the same molecule, the “ALKALINE PHOSPHATASE” value [1] was 403.33 u/L, the “ASPARTATE AMINOTRANSFERASE” value [1] was 87 u/L and the “BLOOD UREA NITROGEN” value [1] was 14.67 mg/dL. The “CARBON DIOXIDE” value [1] was 31 mmol/L, the CHLORIDE [1] was 103 MEQ/L and the CHOLESTEROL [1] was 82.33 mg/dL. For the same molecule, the “CREATINE PHOSPHOKINASE” value [1] was 376.33 u/L, the CREATININE [1] was 0.17 mg/dL and the GLUCOSE [1] was 146.33 mg/dL. The “LACTATE DEHYDROGENASE” value [1] was 196.33 u/L, the LIPASE [1] was 12.33 u/L and the PHOSPHORUS [1] was 11.43 mg/dL. For the same molecule, the POTASSIUM [1] was 6.79 MEQ/L, the SODIUM [1] was 147.27 MEQ/L and the “TOTAL BILIRUBIN” value [1] was 0.2 mg/dL. For the same molecule, the “TOTAL PROTEIN” value [1] was 6.13 G/DL, the “URIC ACID” value [1] was 1.33 mg/dL and the “ABSOLUTE BASOPHIL” value [2] was 0 CELLS/uL. For the same molecule, the “ABSOLUTE EOSINOPHIL” value [2] was 19 CELLS/uL, the “ABSOLUTE LYMPHOCYTE” value [2] was 4849 CELLS/uL and the “ABSOLUTE MONOCYTE” value [2] was 38 CELLS/uL. The “ABSOLUTE SEGMENTED NEUTROPHIL” value [2] was 660.67 CELLS/uL, the BASOPHIL [2] was 0% and the EOSINOPHIL [2] was 0.33%. For the same molecule, the “ERYTHROCYTE COUNT” value [2] was 4.95 x10E6/uL, the HEMATOCRIT [2] was 29.67% and the HEMOGLOBIN [2] was 11.53 G/DL. The “LEUKOCYTE COUNT” value [2] was 5.57 x10E3/uL, the LYMPHOCYTE [2] was 87.67% and the “MEAN CORPUSCULAR HEMOGLOBIN” value [2] was 23.33 pg. The “MEAN CORPUSCULAR HEMOGLOBIN CONCENTRATION” value [2] was 38.9 G/DL, the “MEAN CORPUSCULAR VOLUME” value [2] was 59.87 fL and the MONOCYTE [2] was 0.67%. For the same molecule, the NEUTROPHIL [2] was 11.33%, the “NUCLEATED RED BLOOD CELLS” value [2] was 0.33 /100WBC and the “PLATELET COUNT” value [2] was 653.33 x10E3/uL. The “ALANINE AMINOTRANSFERASE” value [2] was 48.33 u/L, the ALBUMIN [2] was 4.27 G/DL and the “ALKALINE PHOSPHATASE” value [2] was 396 u/L. For the same molecule, the “ASPARTATE AMINOTRANSFERASE” value [2] was 75.67 u/L, the “BLOOD UREA NITROGEN” value [2] was 15 mg/dL and the “CARBON DIOXIDE” value [2] was 31.33 mmol/L. The CHLORIDE [2] was 103 MEQ/L, the CHOLESTEROL [2] was 76.33 mg/dL and the “CREATINE PHOSPHOKINASE” value [2] was 182.67 u/L. The CREATININE [2] was 0.2 mg/dL, the GLUCOSE [2] was 181 mg/dL and the “LACTATE DEHYDROGENASE” value [2] was 88 u/L. For the same molecule, the LIPASE [2] was 8.33 u/L, the PHOSPHORUS [2] was 12.33 mg/dL and the POTASSIUM [2] was 6.09 MEQ/L. The SODIUM [2] was 146.47 MEQ/L, the “TOTAL BILIRUBIN” value [2] was 0.17 mg/dL and the “TOTAL PROTEIN” value [2] was 6.3 G/DL. The “URIC ACID” value [2] was 1.43 mg/dL, the “ABSOLUTE BASOPHIL” value [3] was 0 CELLS/uL and the “ABSOLUTE EOSINOPHIL” value [3] was 72.67 CELLS/uL. For the same molecule, the “ABSOLUTE LYMPHOCYTE” value [3] was 12680.33 CELLS/uL, the “ABSOLUTE MONOCYTE” value [3] was 379.67 CELLS/uL and the “ABSOLUTE SEGMENTED NEUTROPHIL” value [3] was 1067.33 CELLS/uL. The BASOPHIL [3] was 0%, the EOSINOPHIL [3] was 0.67% and the “ERYTHROCYTE COUNT” value [3] was 5.31 x10E6/uL. For the same molecule, the HEMATOCRIT [3] was 34.1%, the HEMOGLOBIN [3] was 13.1 G/DL and the “LEUKOCYTE COUNT” value [3] was 14.2 x10E3/uL. For the same molecule, the LYMPHOCYTE [3] was 89.33%, the “MEAN CORPUSCULAR HEMOGLOBIN” value [3] was 24.67 pg and the “MEAN CORPUSCULAR HEMOGLOBIN CONCENTRATION” value [3] was 38.47 G/DL. The “MEAN CORPUSCULAR VOLUME” value [3] was 64.17 fL, the MONOCYTE [3] was 2.33% and the NEUTROPHIL [3] was 7.67%. The “NUCLEATED RED BLOOD CELLS” value [3] was 0 /100WBC, the “PLATELET COUNT” value [3] was 1001 x10E3/uL and the “ALANINE AMINOTRANSFERASE” value [3] was 51 u/L. The ALBUMIN [3] was 4.37 G/DL, the “ALKALINE PHOSPHATASE” value [3] was 321 u/L and the “ASPARTATE AMINOTRANSFERASE” value [3] was 82.33 u/L. For the same molecule, the “BLOOD UREA NITROGEN” value [3] was 17.33 mg/dL, the “CARBON DIOXIDE” value [3] was 29.67 mmol/L and the CHLORIDE [3] was 105.33 MEQ/L. For the same molecule, the CHOLESTEROL [3] was 79.67 mg/dL, the “CREATINE PHOSPHOKINASE” value [3] was 347 u/L and the CREATININE [3] was 0.16 mg/dL. The GLUCOSE [3] was 144 mg/dL, the “LACTATE DEHYDROGENASE” value [3] was 167.33 u/L and the LIPASE [3] was 13 u/L. It also gave a PHOSPHORUS [3] of 12.4 mg/dL, a POTASSIUM [3] of 6.56 MEQ/L and an SODIUM [3] of 146.23 MEQ/L. The “TOTAL BILIRUBIN” value [3] was 0.2 mg/dL and the “TOTAL PROTEIN” value [3] was 6.03 G/DL.
